Experimental data as given in patent US20060069132A1, “Azolecarboxamide herbicides” (priority 2004, published 2006).

Key:
rice = assay: Test C flooded paddy test; assay type: in vivo, Oryza sativa; conditions: for Plant response rating, Rice: 500 g ai/ha, visual rating after 12 to 14 days
In short: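 Injury scored visually against controls on a 0 (no effect) to 100 (complete control) scale, 12 to 14 days after treatment in greenhouse. Flooded paddy plants treated at 2-leaf stage; postemergence plants at 1- to 4-leaf stage, 2 to 18 cm tall.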

ducksalad = assay: Test C flooded paddy test; assay type: in vivo, Heteranthera limosa; conditions: for Plant response rating, Ducksalad: 500 g ai/ha, visual rating after 12 to 14 days
large crabgrass = assay: Test C pre-/postemergence herbicide test; assay type: in vivo, Digitaria sanguinalis
In short: (§1)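 Emerged plants at the 1- to 4-leaf stage (2–18 cm), or freshly planted seeds, received test chemicals in a non-phytotoxic solvent mixture with surfactant. Response was visually scored against controls after 12 to 14 days in the greenhouse, on a 0 (no effect) to 100 (complete control) scale.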

bermudagrass = assay: Test C pre-/postemergence herbicide test; assay type: in vivo, Cynodon dactylon; conditions: for Bermudagrass plant response rating: 500 g ai/ha
In short: as §1

[1] = test system: common (oilseed) sunflower; assay: Test C pre-/postemergence herbicide test; assay type: in vivo, Helianthus annuus; conditions: preemergence
In short: as §1

soybean = assay: Test C pre-/postemergence herbicide test; assay type: in vivo, Glycine max
In short: as §1

kochia = assay: Test C pre-/postemergence herbicide test; assay type: in vivo, Kochia scoparia
In short: as §1

giant foxtail = assay: Test C pre-/postemergence herbicide test; assay type: in vivo, Setaria faberi
In short: as §1

lambsquarters = assay: Test C pre-/postemergence herbicide test; assay type: in vivo, Chenopodium album
In short: as §1

barnyardgrass = assay: Test C flooded paddy test; assay type: in vivo, Echinochloa crus-galli; conditions: for Plant response rating, Barnyardgrass: 500 g ai/ha, visual rating after 12 to 14 days
In short: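 Weeds and wheat were sprayed after emergence, at a height of 2 to 18 cm (1–4 leaves), and paddy barnyardgrass was flooded and treated at two leaves. Assessment took place 12–14 days later in the greenhouse on a 0-to-100 visual control scale. A dash means no result was obtained.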

[2] = 125 g ai/ha, scale 0 to 100 (0 no effect, 100 complete control)
[3] = 250 g ai/ha, scale of 0 to 100, 0 is no effect, 100 is complete control
[4] = scale 0 to 100 (0 no effect, 100 complete control)
[5] = 62 g ai/ha, preemergence, scale 0 to 100
[6] = 125 g ai/ha, scale 0 (no effect) to 100 (complete control), visual, 12 to 14 days, preemergence
[7] = 250 g ai/ha, scale 0-100, preemergence
[8] = 500 g ai/ha, scale 0 to 100 (0 no effect, 100 complete control), visual, 12 to 14 days, preemergence
[9] = Postemergence, 500 g ai/ha, scale 0 to 100
[10] = Postemergence, 250 g ai/ha, scale 0 to 100, 0 no effect, 100 complete control
[11] = postemergence, 62 g ai/ha, scale 0 to 100
[12] = 62 g ai/ha, preemergence, scale 0 to 100, 0 no effect, 100 complete control
[13] = postemergence, 125 g ai/ha, scale 0 to 100
[14] = 62 g ai/ha, scale 0 to 100 (0 no effect, 100 complete control)

CCn1nc(C(C)(C)C)cc1C(=O)Nc1cccc(OC(F)F)c1 [Compound 332]
20: Ducksalad plant response rating (ducksalad; 62 g ai/ha, scale 0 to 100) | Plant response rating, Foxtail, Giant (giant foxtail; [6]) | Foxtail, Giant plant response rating (giant foxtail; [9])
60: Plant response rating, Soybean (soybean; [10]) | Plant response rating, Foxtail, Giant (giant foxtail; [7]) | Plant response rating, Barnyardgrass (barnyardgrass; [4])
75: Plant response rating, Crabgrass, Large (large crabgrass; [5])
10: Plant response rating, Bermudagrass (bermudagrass; [13]) | Plant response rating, Soybean (soybean; [8]) | Plant response rating, Foxtail, Giant (giant foxtail; [13]) | Plant response rating, Foxtail, Giant (giant foxtail; [11])
70: Plant response rating, Rice (rice; [4]) | Crabgrass, Large plant response rating (large crabgrass; [9]) | Bermudagrass plant response rating (bermudagrass; Postemergence, scale 0 to 100)
50: Plant response rating, Crabgrass, Large (large crabgrass; [10]) | Plant response rating, Bermudagrass (bermudagrass; [10]) | Plant response rating, Soybean (soybean; [13]) | Plant response rating, Lambsquarters (lambsquarters; [11]) | Barnyardgrass plant response rating (barnyardgrass; [3])
15: Plant response rating, Foxtail, Giant (giant foxtail; [10])
95: Ducksalad plant response rating (ducksalad; [3]) | Plant response rating, Ducksalad (ducksalad; [4]) | Plant response rating, Kochia (kochia; [10])
100: Plant response rating, Crabgrass, Large (large crabgrass; [6]) | Plant response rating, Crabgrass, Large (large crabgrass; [7]) | Plant response rating, Crabgrass, Large (large crabgrass; [8]) | Plant response rating, Bermudagrass (bermudagrass; [6]) | Plant response rating, Bermudagrass (bermudagrass; [7]) | Bermudagrass plant response rating (bermudagrass; Preemergence, scale 0 to 100, 0 no effect, 100 complete control) | Plant response rating, Kochia (kochia; [5]) | Plant response rating, Kochia (kochia; [6]) | Plant response rating, Kochia (kochia; [7]) | Plant response rating, Kochia (kochia; [8]) | Kochia plant response rating (kochia; [9]) | Plant response rating, Lambsquarters (lambsquarters; [5]) | Plant response rating, Lambsquarters (lambsquarters; [6]) | Plant response rating, Lambsquarters (lambsquarters; [7]) | Plant response rating, Lambsquarters (lambsquarters; [8]) | Lambsquarters plant response rating (lambsquarters; [9]) | Plant response rating, Lambsquarters (lambsquarters; [10])
90: Ducksalad plant response rating (ducksalad; [2]) | Soybean plant response rating (soybean; [9]) | Plant response rating, Kochia (kochia; [13])
25: Barnyardgrass plant response rating (barnyardgrass; [2])
0: Rice plant response rating (rice; 62 g ai/ha, scale 0 to 100) | Rice plant response rating (rice; [2]) | Plant response rating, Sunflower ([1]; 62 g ai/ha, scale 0 to 100) | Plant response rating, Sunflower ([1]; 250 g ai/ha, scale 0-100) | Plant response rating, Sunflower ([1]; 500 g ai/ha, scale 0 to 100 (0 no effect, 100 complete control), visual, 12 to 14 days) | Plant response rating, Soybean (soybean; [5]) | Plant response rating, Soybean (soybean; [7]) | Plant response rating, Foxtail, Giant (giant foxtail; [5])
5: Plant response rating, Bermudagrass (bermudagrass; [11]) | Barnyardgrass plant response rating (barnyardgrass; [14])
30: Plant response rating, Crabgrass, Large (large crabgrass; [11])
80: Plant response rating, Bermudagrass (bermudagrass; [12]) | Plant response rating, Kochia (kochia; [11]) | Plant response rating, Foxtail, Giant (giant foxtail; [8])
45: Rice plant response rating (rice; [3]) | Plant response rating, Soybean (soybean; [11])
65: Plant response rating, Lambsquarters (lambsquarters; [13])

CCn1nc(C(C)(C)C)cc1C(=O)Nc1cc(C(=S)N(C)C)ccn1 [Compound 334]
85: Plant response rating, Rice (rice; [4]) | Ducksalad plant response rating (ducksalad; [2]) | Ducksalad plant response rating (ducksalad; [3]) | Plant response rating, Crabgrass, Large (large crabgrass; [5])
55: Plant response rating, Sunflower ([1]; 250 g ai/ha, scale 0-100)
75: Rice plant response rating (rice; [2]) | Ducksalad plant response rating (ducksalad; 62 g ai/ha, scale 0 to 100)
5: Plant response rating, Sunflower ([1]; 62 g ai/ha, scale 0 to 100)
90: Plant response rating, Ducksalad (ducksalad; [4]) | Barnyardgrass plant response rating (barnyardgrass; [2])
80: Rice plant response rating (rice; [3]) | Plant response rating, Soybean (soybean; [7]) | Plant response rating, Foxtail, Giant (giant foxtail; [6])
95: Barnyardgrass plant response rating (barnyardgrass; [3]) | Plant response rating, Barnyardgrass (barnyardgrass; [4])
15: Plant response rating, Soybean (soybean; [5])
100: Plant response rating, Crabgrass, Large (large crabgrass; [6]) | Plant response rating, Crabgrass, Large (large crabgrass; [7]) | Plant response rating, Bermudagrass (bermudagrass; 31 g ai/ha, scale 0 to 100, 0 no effect, 100 complete control, last section of Table C (species set of preemergence test)) | Plant response rating, Bermudagrass (bermudagrass; [12]) | Plant response rating, Bermudagrass (bermudagrass; [6]) | Plant response rating, Bermudagrass (bermudagrass; [7]) | Plant response rating, Kochia (kochia; [5]) | Plant response rating, Kochia (kochia; [6]) | Plant response rating, Kochia (kochia; [7]) | Plant response rating, Foxtail, Giant (giant foxtail; [7]) | Plant response rating, Lambsquarters (lambsquarters; [5]) | Plant response rating, Lambsquarters (lambsquarters; [6]) | Plant response rating, Lambsquarters (lambsquarters; [7])
70: Rice plant response rating (rice; 62 g ai/ha, scale 0 to 100) | Barnyardgrass plant response rating (barnyardgrass; [14])
60: Plant response rating, Foxtail, Giant (giant foxtail; [5])
